Assays:
Assay in all cases: Competitive isoTOP-ABPP in situ (fragment-treated cells)
Type in all cases: cell-based
[1] = molecular target: cysteines in MDA-MB-231 and Ramos cells (Homo sapiens, UniProt O60610); conditions: 200 μM, insitu
Description: (§1) Fragments 4 and 11 were screened at 100 μM in situ. […] Site-specific engagement of electrophilic fragments was assessed by blockade of IA-alkyne probe labeling. […] Ratios for unique peptide entries were calculated for each experiment; overlapping peptides with the same modified cysteine (e.g. different charge states, MudPIT chromatographic steps or tryptic termini) were grouped together and the median ratio was reported as the final ratio (R). The peptide ratios reported by CIMAGE were further filtered to ensure the removal or correction of low quality ratios in each individual dataset. […] R values were calculated and individual datasets were filtered as described above (R value calculation and processing).

[2] = molecular target: T1, cysteines in MDA-MB-231 and Ramos cells (Homo sapiens, UniProt P23919); conditions: 200 μM, insitu, 231
T1 sequence (P23919 1-212): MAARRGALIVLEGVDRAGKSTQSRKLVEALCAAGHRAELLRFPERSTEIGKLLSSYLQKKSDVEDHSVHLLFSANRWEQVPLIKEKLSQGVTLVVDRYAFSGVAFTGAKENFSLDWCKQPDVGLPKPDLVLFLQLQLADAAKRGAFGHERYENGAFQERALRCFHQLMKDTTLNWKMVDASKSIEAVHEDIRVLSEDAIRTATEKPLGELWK
Description: as §1

[3] = molecular target: T2, cysteines in MDA-MB-231 and Ramos cells (Homo sapiens, UniProt P52597); conditions: 200 μM, insitu
T2 sequence (P52597 1-415): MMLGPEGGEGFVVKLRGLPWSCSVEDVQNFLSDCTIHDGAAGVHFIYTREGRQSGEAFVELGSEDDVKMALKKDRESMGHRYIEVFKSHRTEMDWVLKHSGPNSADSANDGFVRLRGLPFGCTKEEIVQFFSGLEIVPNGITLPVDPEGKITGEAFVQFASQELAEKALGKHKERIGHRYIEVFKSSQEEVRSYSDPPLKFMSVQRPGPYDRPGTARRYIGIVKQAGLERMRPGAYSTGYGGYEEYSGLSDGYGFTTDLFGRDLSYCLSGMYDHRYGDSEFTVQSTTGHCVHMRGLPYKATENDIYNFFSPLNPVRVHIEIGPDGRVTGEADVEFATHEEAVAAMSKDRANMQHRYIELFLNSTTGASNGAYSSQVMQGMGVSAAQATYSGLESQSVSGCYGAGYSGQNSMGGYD
Description: as §1

[4] = molecular target: T3, cysteines in MDA-MB-231 and Ramos cells (Homo sapiens, UniProt P57764); conditions: 200 μM, insitu
T3 sequence (P57764 1-484): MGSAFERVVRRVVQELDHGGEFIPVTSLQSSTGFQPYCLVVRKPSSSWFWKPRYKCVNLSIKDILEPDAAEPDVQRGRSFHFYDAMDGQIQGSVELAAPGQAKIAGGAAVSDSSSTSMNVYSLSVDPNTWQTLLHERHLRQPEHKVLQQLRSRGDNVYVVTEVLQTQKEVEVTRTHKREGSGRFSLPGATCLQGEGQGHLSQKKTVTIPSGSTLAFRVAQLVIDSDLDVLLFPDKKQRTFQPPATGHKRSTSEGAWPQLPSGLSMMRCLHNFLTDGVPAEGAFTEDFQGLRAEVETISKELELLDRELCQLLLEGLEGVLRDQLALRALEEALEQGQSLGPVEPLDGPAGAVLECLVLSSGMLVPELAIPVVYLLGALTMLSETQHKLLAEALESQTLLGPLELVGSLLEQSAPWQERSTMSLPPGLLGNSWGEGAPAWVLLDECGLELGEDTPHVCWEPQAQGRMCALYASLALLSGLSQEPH
Description: as §1

[5] = molecular target: cysteines in MDA-MB-231 and Ramos cells (Homo sapiens, UniProt Q14997); conditions: 200 μM, insitu, 231
Description: as §1

[6] = molecular target: T4, cysteines in MDA-MB-231 and Ramos cells (Homo sapiens, UniProt Q15084); conditions: 200 μM, insitu, 231
T4 sequence (Q15084 20-440): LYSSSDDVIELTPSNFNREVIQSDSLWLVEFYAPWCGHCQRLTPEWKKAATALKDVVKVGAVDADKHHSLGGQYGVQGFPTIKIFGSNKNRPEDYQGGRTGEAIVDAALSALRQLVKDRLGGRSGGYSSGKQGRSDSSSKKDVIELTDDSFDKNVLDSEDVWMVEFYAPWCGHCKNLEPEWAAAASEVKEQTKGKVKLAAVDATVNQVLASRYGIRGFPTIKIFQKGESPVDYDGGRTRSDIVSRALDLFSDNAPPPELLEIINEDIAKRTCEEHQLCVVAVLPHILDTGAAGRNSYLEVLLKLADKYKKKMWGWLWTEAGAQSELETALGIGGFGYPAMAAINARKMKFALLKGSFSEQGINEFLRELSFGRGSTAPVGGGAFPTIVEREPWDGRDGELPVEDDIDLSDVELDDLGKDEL
Description: as §1

[7] = molecular target: T5, cysteines in MDA-MB-231 and Ramos cells (Homo sapiens, UniProt Q15233); conditions: 200 μM, insitu
T5 sequence (Q15233 1-471): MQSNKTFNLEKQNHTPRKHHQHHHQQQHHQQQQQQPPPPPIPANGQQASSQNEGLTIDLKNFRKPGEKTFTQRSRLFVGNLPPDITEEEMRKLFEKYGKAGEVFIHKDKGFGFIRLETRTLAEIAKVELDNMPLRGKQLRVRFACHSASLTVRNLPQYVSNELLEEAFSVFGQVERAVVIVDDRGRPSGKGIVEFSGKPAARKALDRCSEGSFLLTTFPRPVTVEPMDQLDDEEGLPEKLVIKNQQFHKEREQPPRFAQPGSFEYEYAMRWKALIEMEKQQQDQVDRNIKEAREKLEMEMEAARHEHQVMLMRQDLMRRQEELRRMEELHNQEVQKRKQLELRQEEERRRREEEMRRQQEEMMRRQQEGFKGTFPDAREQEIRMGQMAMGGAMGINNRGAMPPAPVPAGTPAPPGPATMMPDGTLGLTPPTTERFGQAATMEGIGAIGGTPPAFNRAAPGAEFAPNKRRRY
Description: as §1

[8] = molecular target: T6, cysteines in MDA-MB-231 and Ramos cells (Homo sapiens, UniProt Q99757); conditions: 200 μM, insitu, 231
T6 sequence (Q99757 60-166): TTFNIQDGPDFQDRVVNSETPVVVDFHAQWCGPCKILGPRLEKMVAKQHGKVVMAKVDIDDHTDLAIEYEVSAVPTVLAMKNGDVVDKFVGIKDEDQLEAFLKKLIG
Description: as §1

[9] = molecular target: T7, cysteines in MDA-MB-231 and Ramos cells (Homo sapiens, UniProt Q9Y277); conditions: 200 μM, insitu
T7 sequence (Q9Y277 1-283): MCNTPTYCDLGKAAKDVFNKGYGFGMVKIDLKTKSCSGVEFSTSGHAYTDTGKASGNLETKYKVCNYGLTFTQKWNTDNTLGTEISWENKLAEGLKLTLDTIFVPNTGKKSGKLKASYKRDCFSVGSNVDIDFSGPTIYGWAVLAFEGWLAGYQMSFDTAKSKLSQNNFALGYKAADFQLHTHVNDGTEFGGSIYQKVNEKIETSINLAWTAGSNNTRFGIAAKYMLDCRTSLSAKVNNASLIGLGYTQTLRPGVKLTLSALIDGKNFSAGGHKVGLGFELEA
Description: as §1

[10] = molecular target: cysteines in MDA-MB-231 and Ramos cells (Homo sapiens, UniProt Q9Y696); conditions: 200 μM, insitu
cysteines in MDA-MB-231 and Ramos cells (Homo sapiens, UniProt Q9Y696), sequence (Q9Y696 whole entry): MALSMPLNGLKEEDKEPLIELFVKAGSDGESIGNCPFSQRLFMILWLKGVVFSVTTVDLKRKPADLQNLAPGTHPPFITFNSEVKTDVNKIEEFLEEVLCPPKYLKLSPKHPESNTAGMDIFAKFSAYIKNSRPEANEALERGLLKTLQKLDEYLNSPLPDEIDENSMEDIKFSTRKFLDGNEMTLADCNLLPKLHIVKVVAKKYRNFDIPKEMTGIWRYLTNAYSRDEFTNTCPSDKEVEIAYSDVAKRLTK
Description: as §1

cysteines in MDA-MB-231 and Ramos cells (Homo sapiens, UniProt O60610), sequence (O60610 whole entry): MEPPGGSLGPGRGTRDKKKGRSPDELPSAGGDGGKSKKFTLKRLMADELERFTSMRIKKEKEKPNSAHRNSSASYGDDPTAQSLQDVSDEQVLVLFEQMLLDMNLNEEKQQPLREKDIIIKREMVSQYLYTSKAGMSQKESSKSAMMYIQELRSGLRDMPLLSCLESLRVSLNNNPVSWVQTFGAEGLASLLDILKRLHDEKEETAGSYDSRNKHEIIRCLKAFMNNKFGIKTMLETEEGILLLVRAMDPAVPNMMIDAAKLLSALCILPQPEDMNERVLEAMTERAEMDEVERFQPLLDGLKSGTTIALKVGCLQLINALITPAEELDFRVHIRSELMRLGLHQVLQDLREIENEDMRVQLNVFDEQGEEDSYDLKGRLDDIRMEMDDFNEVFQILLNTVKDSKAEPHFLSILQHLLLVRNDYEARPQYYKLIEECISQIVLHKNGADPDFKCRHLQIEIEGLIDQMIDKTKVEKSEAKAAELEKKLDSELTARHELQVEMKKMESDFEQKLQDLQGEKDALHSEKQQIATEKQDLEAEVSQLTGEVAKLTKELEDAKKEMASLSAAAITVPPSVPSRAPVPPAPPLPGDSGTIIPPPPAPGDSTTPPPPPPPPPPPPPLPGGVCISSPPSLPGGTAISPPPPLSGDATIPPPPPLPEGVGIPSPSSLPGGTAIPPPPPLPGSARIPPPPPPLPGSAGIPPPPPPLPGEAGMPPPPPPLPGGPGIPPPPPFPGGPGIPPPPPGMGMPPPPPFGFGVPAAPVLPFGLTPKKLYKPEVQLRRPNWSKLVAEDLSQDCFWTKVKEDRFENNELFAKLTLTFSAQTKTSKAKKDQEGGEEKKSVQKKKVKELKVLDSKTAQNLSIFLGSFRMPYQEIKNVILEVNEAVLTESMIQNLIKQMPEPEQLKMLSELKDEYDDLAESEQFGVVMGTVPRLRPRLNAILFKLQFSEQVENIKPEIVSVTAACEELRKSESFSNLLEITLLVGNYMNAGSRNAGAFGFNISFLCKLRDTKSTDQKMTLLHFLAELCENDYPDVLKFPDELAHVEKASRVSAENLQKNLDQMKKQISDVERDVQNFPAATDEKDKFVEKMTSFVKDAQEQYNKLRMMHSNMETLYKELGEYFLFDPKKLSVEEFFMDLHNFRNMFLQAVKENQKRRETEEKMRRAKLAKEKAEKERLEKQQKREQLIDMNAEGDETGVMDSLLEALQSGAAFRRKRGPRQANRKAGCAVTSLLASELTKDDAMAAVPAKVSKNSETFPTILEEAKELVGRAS
cysteines in MDA-MB-231 and Ramos cells (Homo sapiens, UniProt Q14997), sequence (Q14997 whole entry): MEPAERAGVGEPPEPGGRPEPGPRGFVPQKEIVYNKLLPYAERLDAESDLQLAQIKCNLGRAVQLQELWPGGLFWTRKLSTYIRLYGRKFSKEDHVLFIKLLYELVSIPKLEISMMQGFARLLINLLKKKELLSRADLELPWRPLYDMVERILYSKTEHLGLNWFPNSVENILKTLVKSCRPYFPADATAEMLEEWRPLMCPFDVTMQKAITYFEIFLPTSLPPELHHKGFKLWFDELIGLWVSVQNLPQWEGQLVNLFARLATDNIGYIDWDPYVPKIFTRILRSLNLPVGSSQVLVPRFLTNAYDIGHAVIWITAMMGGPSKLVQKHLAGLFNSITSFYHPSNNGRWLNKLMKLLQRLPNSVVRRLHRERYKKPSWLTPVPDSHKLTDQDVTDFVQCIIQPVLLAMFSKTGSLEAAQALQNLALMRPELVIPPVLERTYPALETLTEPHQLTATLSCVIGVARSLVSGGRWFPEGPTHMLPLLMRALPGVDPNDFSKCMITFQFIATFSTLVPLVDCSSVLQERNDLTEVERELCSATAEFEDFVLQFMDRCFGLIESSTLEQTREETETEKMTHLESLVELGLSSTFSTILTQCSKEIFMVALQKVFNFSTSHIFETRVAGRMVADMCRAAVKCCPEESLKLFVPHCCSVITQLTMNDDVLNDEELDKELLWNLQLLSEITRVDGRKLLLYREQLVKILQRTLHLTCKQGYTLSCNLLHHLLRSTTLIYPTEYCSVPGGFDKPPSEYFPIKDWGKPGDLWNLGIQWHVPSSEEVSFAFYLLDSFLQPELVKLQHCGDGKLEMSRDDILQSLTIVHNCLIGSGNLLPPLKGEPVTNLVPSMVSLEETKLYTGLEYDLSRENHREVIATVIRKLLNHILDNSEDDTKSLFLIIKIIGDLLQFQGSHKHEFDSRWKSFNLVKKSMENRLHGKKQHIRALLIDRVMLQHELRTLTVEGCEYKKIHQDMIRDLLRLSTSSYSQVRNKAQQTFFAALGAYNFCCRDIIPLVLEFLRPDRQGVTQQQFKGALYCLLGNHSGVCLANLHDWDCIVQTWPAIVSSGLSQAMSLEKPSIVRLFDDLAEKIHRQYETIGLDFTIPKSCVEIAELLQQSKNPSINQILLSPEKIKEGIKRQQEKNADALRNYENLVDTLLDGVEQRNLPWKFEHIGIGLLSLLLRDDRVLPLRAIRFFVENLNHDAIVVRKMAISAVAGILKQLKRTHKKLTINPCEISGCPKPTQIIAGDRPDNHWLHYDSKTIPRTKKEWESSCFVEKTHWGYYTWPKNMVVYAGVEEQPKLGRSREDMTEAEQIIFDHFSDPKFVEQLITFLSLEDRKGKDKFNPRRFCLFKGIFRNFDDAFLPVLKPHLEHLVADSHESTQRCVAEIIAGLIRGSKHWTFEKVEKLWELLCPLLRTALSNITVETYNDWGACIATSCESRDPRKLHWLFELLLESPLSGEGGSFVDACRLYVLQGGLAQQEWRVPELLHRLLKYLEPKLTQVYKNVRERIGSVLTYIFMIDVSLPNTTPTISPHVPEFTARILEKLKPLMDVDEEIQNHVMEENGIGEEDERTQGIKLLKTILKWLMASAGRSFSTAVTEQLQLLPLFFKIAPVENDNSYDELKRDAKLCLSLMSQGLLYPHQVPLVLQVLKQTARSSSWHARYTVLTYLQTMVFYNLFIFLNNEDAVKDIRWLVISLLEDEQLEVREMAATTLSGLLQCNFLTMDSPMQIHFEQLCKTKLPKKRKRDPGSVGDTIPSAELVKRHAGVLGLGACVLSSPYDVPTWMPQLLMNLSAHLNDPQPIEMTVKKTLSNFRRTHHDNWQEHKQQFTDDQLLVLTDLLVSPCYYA

Structure (SMILES)	isoTOP-ABPP ratio O60610_C1227 [1]; 231	isoTOP-ABPP ratio P23919_C163 [2]	isoTOP-ABPP ratio P52597_C267 [3]; 231	isoTOP-ABPP ratio P57764_C268 [4]; 231	isoTOP-ABPP ratio Q14997_C1840 [5]	isoTOP-ABPP ratio Q15084_C55 [6]	isoTOP-ABPP ratio, Q15084_C190 [6]	isoTOP-ABPP ratio Q15233_C145 [7]; 231	isoTOP-ABPP ratio Q99757_C90 [8]	isoTOP-ABPP ratio Q9Y277_C65 [9]; 231	isoTOP-ABPP ratio Q9Y696_C35 [10]; 231	further results
CC(C)CCOCCNC(=O)CCl [compound 27]	0.5	0.2	1.0	0.6	20.0	1.2	1.0	1.2	6.3	1.6	1.0	
COc1cc2c(cc1OC)CN(C(=O)CCl)CC2 [compound 8]												isoTOP-ABPP reactivity P23919_C117 DTYMK [2]: 0.4; isoTOP-ABPP reactivity P23919_C163 DTYMK [2]: 0.6; isoTOP-ABPP reactivity P57764_C268 GSDMD [4]; 231: 8.4; isoTOP-ABPP reactivity Q14997_C1840 PSME4 [5]: 20.0; isoTOP-ABPP reactivity Q15084_C55 PDIA6 [6]: 4.4; isoTOP-ABPP reactivity Q15084_C190 PDIA6 [6]: 5.2; isoTOP-ABPP reactivity Q15233_C145 NONO [7]; 231: 12.0; isoTOP-ABPP reactivity Q99757_C90 TXN2 [8]: 4.5; isoTOP-ABPP reactivity Q9Y696_C35 CLIC4 [10]; 231: 4.7
O=C(CCl)Nc1cccc2ncccc12 [compound 51]			1.3	1.8	20.0	5.0		1.6	5.0		2.6	
COc1ccccc1OCCNC(=O)CCl [compound 28]		0.4			0.9	1.4		1.1		1.2	2.7	
O=C(CCl)N1CCN(S(=O)(=O)c2ccccc2F)CC1 [compound 10]	1.5		2.5		20.0	3.1	3.7			3.3	2.7	isoTOP-ABPP ratio O60610_C1227 ([1]; ramos): 1.4; isoTOP-ABPP ratio, cysteine P23919_C117 [2]: 0.4; isoTOP-ABPP ratio P52597_C267 ([3]; ramos): 2.4; isoTOP-ABPP ratio P57764_C268 ([4]; ramos): 2.2; isoTOP-ABPP ratio Q15233_C145 ([7]; ramos): 2.2; isoTOP-ABPP ratio Q9Y277_C65 ([9]; ramos): 2.5; isoTOP-ABPP ratio Q9Y696_C35 ([10]; ramos): 1.6
CC1CCc2ccccc2N1C(=O)CCl (stereo not shown) [compound 45]	3.0		4.1	20.0		2.0	2.8	3.7	6.7		1.4	
